System: chronic cyclophosphamide (CYP)-induced overactive bladder mouse model
Assay: Overactive Bladder In Vivo Model (chronic cyclophosphamide-induced OAB)
Details: for Mean Voiding Frequency (no./4 hr) / Mean Volume/Void: oral daily, day 8, female C57/Bl6 mice
Experimental: The in vivo effect of PDE4 inhibitors on OAB is studied with a chronic cyclophosphamide (CYP)-induced overactive bladder mouse model adapted from Boudes et al., Neurourol. Urodynam. 2011. In a typical study, female C57/Bl6 mice, approximately 20 grams in body weight (Harlan Laboratories, Inc., Indianapolis, Ind.) are used. Mice are randomized by body weight into groups one day before the start of the study. Mice are individually housed and maintained on a 12 hour light/dark cycle at 22° C. with ad lib access to food (TD 2014 with 0.72% Ca and 0.61% P, 990 IU/g D3, Teklad™, Madison, Wis.) and water. Animals receive cyclophosphamide (dissolved in physiological saline) i.p. administration at 100 mg/kg on days 1, 3, 5, and 7 to chronically induce OAB. The vehicle control group received daily vehicle (HEC 1%/Tween 80 0.25%/Antifoam 0.05%) administered orally. All other groups are administered orally tadalafil at 10 mg/kg in combination with 0.1, 1.0, or 10.0 mg/kg of test compound daily at a volume of 200 μl/mouse. On day 8, mice are housed in urine collection chambers with a filter paper placed underneath chamber. Prior to urine collection, gavages of 1 ml water are given to each mouse. Urine is collected from 6 pm to 10 pm (i.e. for 4 hrs). Gel cups (DietGel™ 76A) are supplied as water source during the 4 hour period. The filter paper is changed every hour. Voiding frequency and volume/void are calculated using Image J software (NIH). Data are statistically analyzed with JMP8® software (Cary, N. C.).
All treatment groups receive a fixed dose of 10 mg/kg of tadalafil.

[1] = Example 2 0.1 mg/kg + tadalafil 10 mg/kg
[2] = Example 2 1.0 mg/kg + tadalafil 10 mg/kg
[3] = Example 2 10.0 mg/kg + tadalafil 10 mg/kg
[4] = given with tadalafil 10 mg/kg, 0.1, 1.0, 10.0 mg/kg oral daily

COc1ccc([C@@H]2CN(C(=O)[C@@H](O)CO)C[C@@]2(C)[C@@H](C)O)cc1OC1CN(c2ccc(C)cn2)C1 [Example 2, (2S)-3-[(3S,4S)-3-[(1R)-1-hydroxyethyl]-4-(4-methoxy-3-{[1-(5-methylpyridin-2-yl)azetidin-3-yl]oxy}phenyl)-3-methylpyrrolidin-1-yl]-3-oxopropane-1,2-diol]
Mean Voiding Frequency (no./4 hr) [1]: 10 no./4 hr | Mean Volume/Void [1]: 47.3 µL | Mean Voiding Frequency (no./4 hr) [2]: 8.61 no./4 hr | Mean Volume/Void [2]: 77.2 µL | Mean Voiding Frequency (no./4 hr) [3]: 8.38 no./4 hr | Mean Volume/Void [3]: 81.9 µL | effect on urinary frequency (in words) [4]: significantly reduces urinary frequency in a dose-dependent fashion | effect on volume/void (in words) [4]: increases of volume/void are also observed in a dose-dependent fashion
